# Data: patent US12644001B2, “Fluorenyl cyanine dyes” (Biotium, Inc., priority 2020, dated 2026)
# Assay: Fluorescence properties (excitation and emission wavelength) of exemplary compounds
# Assay type: physicochemical
# Conditions: for λ^em (nm): emission wavelength; for λ^ex (nm): excitation wavelength
# Excerpt: Exemplary compounds of the invention along with their known fluorescence properties are shown in Table 2 where λ^ex denotes excitation wavelength and λ^em denotes emission wavelength: […]
SMILES,λ^em (nm),λ^ex (nm)
CCCOCCOCCOCCOCCOCCOCCOCCOCCOCCOCCONC(=O)CCC1(CCC(=O)NCCOCCOCCOCCOCCOCCOCCOCCOCCOCCOCCOC)c2cc(S(=O)(=O)O)ccc2-c2cc3c(cc21)N(CCCCCC(=O)ON1C(=O)CCC1=O)/C(=C/C=C/C=C/C1=[N+](CCCCCC(=O)ON2C(=O)CCC2=O)c2cc4c(cc2C1(C)C)-c1ccc(S(=O)(=O)[O-])cc1C4(CCC(=O)NCCOCCOCCOCCOCCOCCOCCOCCOCCOCCOCCOC)CCC(=O)NOCCOCCOCCOCCOCCOCCOCCOCCOCCOCCOCCC)C3(C)C (stereo not drawn) [Compound E14],721,696
CCCOCCOCCOCCOCCOCCONC(=O)CCC1(CCC(=O)NCCOCCOCCOCCOCCOCCOC)c2cc3c(cc2-c2c1cc(S(=O)(=O)O)cc2S(=O)(=O)[O-])C(C)(C)C(/C=C/C=C/C=C1/N(CCCCCC(=O)ON2C(=O)CCC2=O)c2cc4c(cc2C1(C)C)-c1c(cc(S(=O)(=O)O)cc1S(=O)(=O)O)C4(CCC(=O)NCCOCCOCCOCCOCCOCCOC)CCC(=O)NOCCOCCOCCOCCOCCOCCC)=[N+]3CCCCCC(=O)ON1C(=O)CCC1=O (stereo not drawn) [Compound E15],721,696
CCCOCCOCCOCCOCCOCCOCCOCCOCCOCCOCCONC(=O)CCC1(CCC(=O)NOCCOCCOCCOCCOCCOCCOCCOCCOCCOCCOCCC)c2cc(S(=O)(=O)[O-])ccc2-c2cc3c(cc21)[N+](CCCCCC(=O)ON1C(=O)CCC1=O)=C(/C=C/C1=C(Oc2ccc(S(=O)(=O)O)cc2)C(=C/C=C2/N(CCCCCC(=O)ON4C(=O)CCC4=O)c4cc5c(cc4C2(C)C)-c2ccc(S(=O)(=O)O)cc2C5(CCC(=O)NCCOCCOCCOCCOCCOCCOCCOCCOCCOCCOCCOC)CCC(=O)NCCOCCOCCOCCOCCOCCOCCOCCOCCOCCOCCOC)/CCC1)C3(C)C [Compound E16],832,823
CCCOCCOCCOCCOCCOCCONC(=O)CCC1(CCC(=O)NOCCOCCOCCOCCOCCOCCC)c2cc3c(cc2-c2c1cc(S(=O)(=O)O)cc2S(=O)(=O)[O-])C(C)(C)C(/C=C/C1=C(Oc2ccc(S(=O)(=O)O)cc2)C(=C/C=C2/N(CCCCCC(=O)ON4C(=O)CCC4=O)c4cc5c(cc4C2(C)C)-c2c(cc(S(=O)(=O)O)cc2S(=O)(=O)O)C5(CCC(=O)NCCOCCOCCOCCOCCOCCOC)CCC(=O)NCCOCCOCCOCCOCCOCCOC)/CCC1)=[N+]3CCCCCC(=O)ON1C(=O)CCC1=O [Compound E17],832,823

# The remaining lines, values ahead:
λ^em (nm),λ^ex (nm),SMILES
518,445,CC1(C)C2=CC3=[N+](CCN2c2ccccc21)c1cc2c(cc1C3(C)CCCCCC(=O)O)-c1ccccc1C2(C)C.[I-] (stereo not drawn) [Compound E1]
602,572,CC1(CCCCCC(=O)O)C(/C=C/C=C2\N(CCCS(=O)(=O)O)c3ccc(S(=O)(=O)[O-])cc3C2(C)C)=[N+](CCCS(=O)(=O)O)c2cc3c(cc21)-c1ccc(S(=O)(=O)O)cc1C3(C)C (stereo not drawn) [Compound E2]
820,795,CC1(C)c2cc(S(=O)(=O)O)ccc2-c2cc3c(cc21)N(CCCCCC(=O)ON1C(=O)CCC1=O)\C(=C/C=C/C=C/C=C/C1=[N+](CCCS(=O)(=O)O)c2cc4c(cc2C12CCCCC2)-c1ccc(S(=O)(=O)[O-])cc1C4(C)C)C31CCCCC1 [Compound E6]
817,793,CC1(C)C(/C=C/C=C/C=C/C=C2\N(CCCCCC(=O)ON3C(=O)CCC3=O)c3cc4c(cc3C2(C)C)-c2ccc(S(=O)(=O)O)cc2C42CCCCC2)=[N+](CCCS(=O)(=O)O)c2cc3c(cc21)-c1ccc(S(=O)(=O)[O-])cc1C31CCCCC1 [Compound E7]
720,686,CC1(C)C(/C=C/C=C/C=C2\N(CCCCCC(=O)ON3C(=O)CCC3=O)c3cc4c(cc3C2(C)C)-c2c(cc(S(=O)(=O)O)cc2S(=O)(=O)O)C4(C)C)=[N+](CCCCCC(=O)ON2C(=O)CCC2=O)c2cc3c(cc21)-c1c(cc(S(=O)(=O)O)cc1S(=O)(=O)[O-])C3(C)C [Compound E19]
